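Results reflect a 48-hour exposure of cells in 96-well plates to compound at five concentrations. Definition used: TGI = concentration required for complete inhibition of growth.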
Key:
Assay in all cases: DTP human tumour cell line panel, 48 h
786-0 renal = tested on: 786-0 renal
A498 renal = tested on: A498 renal
A549 NSCLC = tested on: A549 NSCLC
ACHN renal = tested on: ACHN renal
CAKI-1 renal = tested on: CAKI-1 renal
CCRF-CEM leukemia = tested on: CCRF-CEM leukemia
COLO 205 colon = tested on: COLO 205 colon
DLD-1 colon = tested on: DLD-1 colon
DMS 114 small cell lung = tested on: DMS 114 small cell lung
DMS 273 small cell lung = tested on: DMS 273 small cell lung
EKVX NSCLC = tested on: EKVX NSCLC
HCC-2998 colon = tested on: HCC-2998 colon
HCT-116 colon = tested on: HCT-116 colon
HCT-15 colon = tested on: HCT-15 colon
HL-60(TB) leukemia = tested on: HL-60(TB) leukemia
HOP-18 NSCLC = tested on: HOP-18 NSCLC
HOP-62 NSCLC = tested on: HOP-62 NSCLC
HOP-92 NSCLC = tested on: HOP-92 NSCLC
HT29 colon = tested on: HT29 colon
IGROV1 ovarian = tested on: IGROV1 ovarian
K-562 leukemia = tested on: K-562 leukemia
KM12 colon = tested on: KM12 colon
KM20L2 colon = tested on: KM20L2 colon
LOX IMVI melanoma = tested on: LOX IMVI melanoma
LXFL 529 NSCLC = tested on: LXFL 529 NSCLC
M14 melanoma = tested on: M14 melanoma
M19-MEL melanoma = tested on: M19-MEL melanoma
MALME-3M melanoma = tested on: MALME-3M melanoma
MOLT-4 leukemia = tested on: MOLT-4 leukemia
NCI-H226 lung = tested on: NCI-H226 lung
NCI-H23 lung = tested on: NCI-H23 lung
NCI-H460 lung = tested on: NCI-H460 lung
NCI-H522 lung = tested on: NCI-H522 lung
OVCAR-3 ovarian = tested on: OVCAR-3 ovarian
OVCAR-4 ovarian = tested on: OVCAR-4 ovarian
OVCAR-5 ovarian = tested on: OVCAR-5 ovarian
OVCAR-8 ovarian = tested on: OVCAR-8 ovarian
RPMI-8226 leukemia = tested on: RPMI-8226 leukemia
SF-268 CNS = tested on: SF-268 CNS
SF-295 CNS = tested on: SF-295 CNS
SF-539 CNS = tested on: SF-539 CNS
SK-MEL-2 melanoma = tested on: SK-MEL-2 melanoma
SK-MEL-28 melanoma = tested on: SK-MEL-28 melanoma
SK-MEL-5 melanoma = tested on: SK-MEL-5 melanoma
SK-OV-3 ovarian = tested on: SK-OV-3 ovarian
SN12C renal = tested on: SN12C renal
SNB-19 CNS = tested on: SNB-19 CNS
SNB-75 CNS = tested on: SNB-75 CNS
SNB-78 CNS = tested on: SNB-78 CNS
SW-620 colon = tested on: SW-620 colon
TK-10 renal = tested on: TK-10 renal
U251 CNS = tested on: U251 CNS
UACC-257 melanoma = tested on: UACC-257 melanoma
UACC-62 melanoma = tested on: UACC-62 melanoma
UO-31 renal = tested on: UO-31 renal
RXF 393 renal = tested on: RXF 393 renal
SR leukemia = tested on: SR leukemia
XF 498 CNS = tested on: XF 498 CNS

Measured: TGI

COS(=O)(=O)OCCC(NC(=O)OCc1ccccc1)C(=O)OCc1ccccc1 (centres undefined)
> 100 µM: 786-0 renal | A498 renal | A549 NSCLC | ACHN renal | CAKI-1 renal | CCRF-CEM leukemia | COLO 205 colon | DLD-1 colon | DMS 114 small cell lung | DMS 273 small cell lung | EKVX NSCLC | HCC-2998 colon | HCT-116 colon | HCT-15 colon | HL-60(TB) leukemia | HOP-18 NSCLC | HOP-62 NSCLC | HOP-92 NSCLC | HT29 colon | IGROV1 ovarian | K-562 leukemia | KM12 colon | KM20L2 colon | LOX IMVI melanoma | LXFL 529 NSCLC | M14 melanoma | M19-MEL melanoma | MALME-3M melanoma | MOLT-4 leukemia | NCI-H226 lung | NCI-H23 lung | NCI-H460 lung | NCI-H522 lung | OVCAR-3 ovarian | OVCAR-4 ovarian | OVCAR-5 ovarian | OVCAR-8 ovarian | RPMI-8226 leukemia | SF-268 CNS | SF-295 CNS | SF-539 CNS | SK-MEL-2 melanoma | SK-MEL-28 melanoma | SK-MEL-5 melanoma | SK-OV-3 ovarian | SN12C renal | SNB-19 CNS | SNB-75 CNS | SNB-78 CNS | SW-620 colon | TK-10 renal | U251 CNS | UACC-257 melanoma | UACC-62 melanoma | UO-31 renal

NC1=NS(=O)(=O)Nc2nc(-c3ccccc3)c(-c3ccccc3)nc21
> 100 µM: 786-0 renal | A549 NSCLC | ACHN renal | CCRF-CEM leukemia | COLO 205 colon | DLD-1 colon | DMS 273 small cell lung | EKVX NSCLC | HCC-2998 colon | HCT-116 colon | HCT-15 colon | HL-60(TB) leukemia | HOP-18 NSCLC | HOP-92 NSCLC | HT29 colon | IGROV1 ovarian | K-562 leukemia | KM12 colon | KM20L2 colon | LOX IMVI melanoma | LXFL 529 NSCLC | M14 melanoma | M19-MEL melanoma | MALME-3M melanoma | MOLT-4 leukemia | NCI-H226 lung | NCI-H23 lung | NCI-H460 lung | NCI-H522 lung | OVCAR-3 ovarian | OVCAR-4 ovarian | OVCAR-5 ovarian | OVCAR-8 ovarian | RPMI-8226 leukemia | RXF 393 renal | SF-268 CNS | SF-295 CNS | SF-539 CNS | SK-MEL-2 melanoma | SK-MEL-28 melanoma | SK-MEL-5 melanoma | SK-OV-3 ovarian | SN12C renal | SNB-19 CNS | SNB-75 CNS | SNB-78 CNS | SR leukemia | SW-620 colon | TK-10 renal | U251 CNS | UACC-257 melanoma | UACC-62 melanoma | UO-31 renal | XF 498 CNS
